Data reported in US8258130B2 (Sanofi, priority 2007, dated 2012).

target: human h-PGDS (Homo sapiens, UniProt O60760); test: Enzyme Immunoassay (EIA) method, inhibition of hematopoietic PGD2 synthase; assay type: biochemical; details: EIA assay, PGD2 formed from PGH2 by human h-PGDS
Description: Assay 2: Enzyme Immunoassay (EIA) Method
• a. Preparation of 0.1M K2HPO4/KH2PO4 buffer (pH 7.4) • Prepare 0.1 M KH2PO4 from 1M KH2PO4 (Sigma, Cat# P-8709) • Prepare 0.1 M K2HPO4 from powder of K2HPO4 (Fisher, BP363-500) • Mix 0.1 M K2HPO4 with 0.1 M KH2PO4 to adjust pH to 7.4. • b. Preparation of 0.5% γ-globulin • Add 0.1 g of γ-globulin (Sigma, Cat# G-5009) to 20 mL 0.1 M K2HPO4/KH2PO4 buffer (pH 7.4) and make 1-mL/vial aliquots and store in −80° C. • c. Preparation of 100 mM GSH • Add 307 mg of GSH (Sigma, Cat# G-6529) to 10 mL 0.1 M K2HPO4/KH2PO4 buffer (pH 7.4) and store at −80° C. • d. Preparation of Reaction buffer: • 198 mL of 0.1M K2HPO4/KH2PO4 buffer (pH 7.4) • 2 mM GSH—Prepared from 100 mM GSH • 0.4 g Glycerol • 2 mL of 0.5% γ-globulin • Add 0.4 g of glycerol and 2 mL of 0.5% γ-globulin to 198 mL of 0.1 M K2HPO4/KH2PO4 • buffer (pH7.4). • Add 0.4 mL of 100 mM GSH to 19.6 mL reaction buffer before the assay (enough for two 96-well plates). • e. Preparation of FeCl2/citric acid stopping solution: (8 mg/mL FeCl2, 0.1 M citric acid) • Add 40 mg fresh FeCl2 (IGN, Cat# 158046) to 5 mL 0.1 M citric acid (Sigma, Cat# C0759). • f. Preparation of MOX reagent: • 10% EtOH—Add 1 mL of EtOH to 9 mL of ultra pure H2O • Dissolve 0.1 g of methoxyl amine (Cayman, Cat# 400036/) in 10% EtOH (10 mL). • Add 0.82 g of sodium acetate (Cayman, Cat#400037) to MOX solution and dissolve. II. Materials and Method • Dimethylsulfoxide (DMSO; Sigma; Cat# D2650) • Prostaglandin D2-MOX express EIA kit (Caymen Chemical, Catalog No. 500151)
Before the assay, cool down 10 mL of acetone in polypropylene tubes and empty 96 well plates in ice. All the procedures except compound dilution are performed on ice.
• 1. Dilute compound in DMSO
• 2. Dilute 2 μL of each above concentration of compound to 38 μL of reaction buffer in 96-well plates and mix. IV. Enzyme and Substrate Solution Preparation • 1 Preparation of 0.39 ng/μL enzyme solution (0.35 ng/μL at final after compound addition). • Mix 4 μL of 4 mg/mL human h-PGDS with 396 μL of reaction buffer (to give enzyme concentration 40 μg/mL). Add 46.8 μL of 40 μg/mL h-PGDS to 4.753 mL of reaction buffer to give a total volume of 4.8 mL • 2. Preparation of Substrate Solution (PGH2): Add 0.375 mL of 0.1 mg/mL of PGH2 to 1.625 mL acetone. V. Enzyme Reaction: • 1. Add 60 μL of enzyme solution to compound well and positive control (without compound) in U-bottom polypropylene plate on ice. • 2. Add 60 μL of reaction buffer and 6.6 μL of 5% DMSO in reaction buffer into negative control wells in the plate. • 3. Add 6.6 μL of diluted compound in reaction buffer to the compound wells and mix. • 4. Add 6.6 μL of 5% DMSO in reaction buffer to the positive control well. • 5. Incubate the plate in ice for at least 30 min. • 6. Add 20 μL of substrate (PGH2) solution to compound, negative and positive control wells in the U-bottom 96 well plate on ice. • 7. Dry the plate in cold room for about 25-28 min. • 8. Pipette 45 μL of enzyme solution (above) into 96-wells with dried PGH2 and mix 3 times. Incubate on the ice for 1 min. • 9. Add 45 μL of FeCl2 solution into each wells and mix. • 10. Add 90 μL of MOX solution and mix. • 11. Incubate for 30 min at 60° C. • 12. Dilute the samples 2500× with EIA buffer. VI. EIA Assay • Perform the assay according to the procedure in EIA kit provided by Cayman. Total PGD2 levels (pg/mL) were determined in the samples by EIA kits (Caymen Chemical, Catalog No. 500151) Calculate Amount of PGD2 as Below • Calculated % Positive control according to the equation below; % Positive control=(Compound value−Negative control)/(Positive value−Negative control value)×100. […]

human h-PGDS, sequence (O60760 whole entry): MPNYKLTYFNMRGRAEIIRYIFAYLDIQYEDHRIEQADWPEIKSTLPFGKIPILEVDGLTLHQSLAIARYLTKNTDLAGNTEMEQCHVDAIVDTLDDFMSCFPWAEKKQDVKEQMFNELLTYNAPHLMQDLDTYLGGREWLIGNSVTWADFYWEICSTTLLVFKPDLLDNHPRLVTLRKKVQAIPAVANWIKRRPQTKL

Row | IC50 | Structure (SMILES)
1 | 19 nM | Cc1nc(-c2cccc(F)c2)ncc1C(=O)Nn1ccc2cc(F)ccc21 [Example 132, 2-(3-Fluoro-phenyl)-4-methyl-pyrimidine-5-carboxylic acid (5-fluoro-indol-1-yl)-amide]
2 | 3 nM | O=C(NN1CCc2ccccc21)c1cnc(-c2ccccn2)nc1 [Example 103, 2-Pyridin-2-yl-pyrimidine-5-carboxylic acid (2,3-dihydro-indol-1-yl)-amide]
3 | 10 nM | Cc1nc(-c2cccc(F)c2)ncc1C(=O)Nn1ccc2ccccc21 [Example 109, 2-(3-Fluoro-phenyl)-4-methyl-pyrimidine-5-carboxylic acid indol-1-ylamide]
4 | 12 nM | O=C(NN1CCOc2ccc(F)cc21)c1cnc(-c2cccc(F)c2)nc1 [Example 211, 2-(3-Fluoro-phenyl)-pyrimidine-5-carboxylic acid (6-fluoro-2,3-dihydro-1,4-benzoxazin-4-yl)-amide]
5 | 175 nM | COc1cccc(-c2ncc(C(=O)NN3CC(C)=NNC3=O)cn2)c1 [Example 59, 2-(3-Methoxy-phenyl)-pyrimidine-5-carboxylic acid (6-methyl-3-oxo-2,5-dihydro-3H-[1,2,4]triazin-4-yl)-amide]
6 | 851 nM | Cc1nc(-c2cccc[n+]2[O-])ncc1C(=O)Nn1cc(C)c2cc(F)ccc21 [Example 225, 4-Methyl-2-(1-oxy-pyridin-2-yl)-pyrimidin-5-carboxylic acid (5-fluoro-3-methyl-indol-1-yl)-amide]
7 | 11 nM | O=C(Nn1ccc2c(F)cccc21)c1cnc(-c2cccc(F)c2)nc1 [Example 31, 2-(3-Fluorophenyl)pyrimidine-5-carboxylic acid-(4-fluoroindol-1-yl)amide]
8 | 6 nM | Cc1nc(-c2cccc(F)c2)ncc1C(=O)Nn1cc(C)c2cc(F)ccc21 [Example 10, 2-(3-Fluoro-phenyl)-4-methyl-pyrimidine-5-carboxylic acid (5-fluoro-3-methyl-indol-1-yl)-amide]

Continued, molecule first:

Row | Structure (SMILES) | IC50
9 | O=C(Nn1cc(Br)c(=O)[nH]c1=O)c1cnc(-c2ccccc2)nc1 [Example 72, 2-Phenyl-pyrimidine-5-carboxylic acid (5-bromo-2,4-dioxo-3,4-dihydro-2H-pyrimidin-1-yl)-amide] | 108 nM
10 | COc1ccccc1-c1ncc(C(=O)NN2CC(C)=NNC2=O)cn1 [Example 120, 2-(2-Methoxy-phenyl)-pyrimidine-5-carboxylic acid (6-methyl-3-oxo-2,5-dihydro-3H-[1,2,4]triazin-4-yl)-amide] | 199 nM
11 | O=C(NN1CCN(C(=O)OCc2ccccc2)CC1=O)c1cnc(-c2ccccc2)nc1 [Example 20, 3-Oxo-4-[(2-phenyl-pyrimidine-5-carbonyl)-amino]-piperazine-1-carboxylic acid benzyl ester] | 104 nM
12 | Cc1nc(-c2ncccn2)ncc1C(=O)Nn1cc(C)c2cc(F)ccc21 [Example 157, 4-Methyl-[2,2′]bipyrimidinyl-5-carboxylic acid (5-fluoro-3-methyl-indol-1-yl)-amide] | 4.5 nM
13 | Cc1cn(NC(=O)c2cnc(-c3ccccn3)nc2C(F)(F)F)c2ccc(F)cc12 [Example 209, 2-Pyridin-2-yl-4-trifluoromethyl-pyrimidine-5-carboxylic acid (5-fluoro-3-methyl-indol-1-yl)-amide] | 8 nM
14 | O=C(NN1CCN(CCO)CC1)c1cnc(C(=O)c2ccccc2)nc1 [Example 51, 2-Benzoyl-pyrimidine-5-carboxylic acid [4-(2-hydroxy-ethyl)-piperazin-1-yl]-amide] | 665 nM
15 | Cc1nc(-c2cccc(F)c2)ncc1C(=O)Nn1cc(C)c2ncccc21 [Example 197, 2-(3-Fluoro-phenyl)-4-methyl-pyrimidine-5-carboxylic acid (3-methyl-pyrrolo [32-b]pyridin-1-yl)-amide] | 2 nM
16 | CCc1cn(NC(=O)c2cnc(-c3ncccn3)nc2C)c2ccc(C(F)(F)F)cc12 [Example 176, 4-Methyl-[2,2′]bipyrimidinyl-5-carboxylic acid (3-ethyl-5-trifluoromethyl-indol-1-yl)-amide] | 8 nM
